Data on 19 molecules can be found in patent US20260265227A1, “AMIDE PRODRUGS AND USES THEREOF” (Autobahn Therapeutics, Inc., priority 2022, published 2026).

The target in the assay is T1, recombinant human FAAH (rhFAAH) (Homo sapiens, UniProt O00519).
T1 construct: purchased Cayman Chemical (Ann Arbor, MI, USA)
T1 sequence (O00519 1-579): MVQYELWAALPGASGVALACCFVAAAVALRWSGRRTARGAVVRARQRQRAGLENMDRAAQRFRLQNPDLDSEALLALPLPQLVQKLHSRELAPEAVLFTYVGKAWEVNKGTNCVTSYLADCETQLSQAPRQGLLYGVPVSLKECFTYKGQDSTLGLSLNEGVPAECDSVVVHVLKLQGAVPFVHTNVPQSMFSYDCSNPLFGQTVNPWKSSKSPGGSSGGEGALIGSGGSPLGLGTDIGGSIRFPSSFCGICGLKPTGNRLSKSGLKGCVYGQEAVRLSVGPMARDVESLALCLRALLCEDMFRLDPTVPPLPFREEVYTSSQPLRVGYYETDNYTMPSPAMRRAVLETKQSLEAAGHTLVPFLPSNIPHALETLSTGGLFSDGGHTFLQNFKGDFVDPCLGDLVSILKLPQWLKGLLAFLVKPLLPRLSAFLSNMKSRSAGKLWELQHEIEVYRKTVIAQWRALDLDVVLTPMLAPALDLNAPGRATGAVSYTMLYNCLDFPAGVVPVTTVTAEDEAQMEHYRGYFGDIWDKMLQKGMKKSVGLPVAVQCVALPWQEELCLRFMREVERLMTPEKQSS
Nature of the assay: FAAH Substrate Evaluation (formation of acid metabolite from amide prodrug). Format: biochemical. As to conditions: 0.5 ng/μL rhFAAH, 1 μM test compound, Tris-EDTA buffer pH 8.0, 0.1% BSA, room temperature, 0-60 minutes, LC-MS/MS. The protocol: Purified recombinant human FAAH (rhFAAH) was purchased from Cayman Chemical (Ann Arbor, MI, USA). The total volume for each incubation was 400 μL containing a final 0.5 ng/μL rhFAAH, 1 μM test compound, 1.25% ethanol or 1 μM PF-3845 (FAAH inhibitor), and 0.1% bovine serum albumin in Tris-EDTA buffer at pH 8.0). The positive control was LL-341001. The incubation was conducted at the room temperature. At 0, 5, 15, 30 and 60 minutes, an aliquot of 30 μL reaction mixtures was removed and mixed with 300 μL acetonitrile containing 5 ng/mL terfenadine and 10 ng/ml tolbutamide as internal standards to quench the reaction. The resulting mixture was centrifuged at 4000 rpm, 4° C. for 15 minutes, and 100 μL supernatant was ready for LC-MS/MS analysis to measure the formation of acid metabolite.
Acquity Ultra Performance LC system from Waters was used for sample analysis. The chromatography was performed on a reverse phase Kinetex 2.6 μm C18 column, 2.1×30 mm, 100 Å. The mobile phase A comprised of 0.1% formic acid in water and mobile phase B comprised of 0.1% formic acid in acetonitrile with a 2-min run time at the flow rate of 0.8 mL/min for the acid metabolite from positive control or a 1.5 min run time at the flow rate of 0.9 mL/min for the acid metabolite of test compounds. The mass spectrometer (API-5500 and API Q Trap 4000 Applied Biosystems/MDS SCIEX Instruments, Framingham, MA, USA) was operated under ESI positive or negative ion MRM mode.
The formation of acid metabolite was monitored and quantified using one calibration point of 1 μM. The observed rate constant (ke) for the acid metabolite formation was calculated by plotting the metabolite concentration versus time of incubation with the slope being ke and is shown in Table 1.
As for `C[C@@H](CO)NC(=O)C1CN(CC2=Cc3ccc(OCCCC(F)(F)F)cc3C[C@@H]2C)C1` [Compound 2, N—((S)-1-hydroxypropan-2-yl)-1-(((S)-3-methyl-6-(4,4,4-trifluorobutoxy)-3,4-dihydronaphthalen-2-yl)methyl)azetidine-3-carboxamide], the “ke (observed rate constant for the acid metabolite formation)” value (from here on “ke”) is “B (ke is less than 1.0 and more than 0)”. For `C[C@H]1Cc2cc(OCCCC(F)(F)F)ccc2C=C1CN1CC(C(=O)Nc2cncnc2)C1` [Compound 3, (S)-1-((3-methyl-6-(4,4,4-trifluorobutoxy)-3,4-dihydronaphthalen-2-yl)methyl)-N-(pyrimidin-5-yl)azetidine-3-carboxamide] the value was “A (ke is more than or equal to 1.0)”; for `C[C@H]1Cc2cc(OCCCC(F)(F)F)ccc2C=C1CN1CC(C(=O)Nc2ccnnc2)C1` [Compound 4, (S)-1-((3-methyl-6-(4,4,4-trifluorobutoxy)-3,4-dihydronaphthalen-2-yl)methyl)-N-(pyridazin-4-yl)azetidine-3-carboxamide], “A (ke is more than or equal to 1.0)”. Take `COCCNC(=O)C1CN(CC2=Cc3ccc(OCCCC(F)(F)F)cc3C[C@@H]2C)C1` [Compound 5, (S)—N-(2-methoxyethyl)-1-((3-methyl-6-(4,4,4-trifluorobutoxy)-3,4-dihydronaphthalen-2-yl)methyl)azetidine-3-carboxamide]: the “ke” value was “A (ke is more than or equal to 1.0)”.

`C[C@H]1Cc2cc(OCCCC(F)(F)F)ccc2C=C1CN1CC(C(=O)NCC(C)(C)C)C1` [Compound 6, (S)-1-((3-methyl-6-(4,4,4-trifluorobutoxy)-3,4-dihydronaphthalen-2-yl)methyl)-N-neopentylazetidine-3-carboxamide]: the “ke” value was “B (ke is less than 1.0 and more than 0)”.

Take `CC(C)CNC(=O)C1CN(CC2=Cc3ccc(OCCCC(F)(F)F)cc3C[C@@H]2C)C1` [Compound 7, (S)—N-isobutyl-1-((3-methyl-6-(4,4,4-trifluorobutoxy)-3,4-dihydronaphthalen-2-yl)methyl)azetidine-3-carboxamide]: the “ke” value is given as “A (ke is more than or equal to 1.0)”.

Consider `CC[C@@H](C)NC(=O)C1CN(CC2=Cc3ccc(OCCCC(F)(F)F)cc3C[C@@H]2C)C1` [Compound 8, N—((R)-sec-butyl)-1-(((S)-3-methyl-6-(4,4,4-trifluorobutoxy)-3,4-dihydronaphthalen-2-yl)methyl)azetidine-3-carboxamide], for which the “ke” value is “A (ke is more than or equal to 1.0)”. For `C[C@H]1Cc2cc(OCCCC(F)(F)F)ccc2C=C1CN1CC(C(=O)N(C)CC(C)(C)C)C1` [Compound 9, (S)—N-methyl-1-((3-methyl-6-(4,4,4-trifluorobutoxy)-3,4-dihydronaphthalen-2-yl)methyl)-N-neopentylazetidine-3-carboxamide] the value was “C (ke is 0)”; for `CCCNC(=O)C1CN(CC2=Cc3ccc(OCCCC(F)(F)F)cc3C[C@@H]2C)C1` [Compound 10, (S)-1-((3-methyl-6-(4,4,4-trifluorobutoxy)-3,4-dihydronaphthalen-2-yl)methyl)-N-propylazetidine-3-carboxamide], “A (ke is more than or equal to 1.0)”; for `C[C@H]1Cc2cc(OCCCC(F)(F)F)ccc2C=C1CN1CC(C(=O)N(C)C)C1` [Compound 11, (S)—N,N-dimethyl-1-((3-methyl-6-(4,4,4-trifluorobutoxy)-3,4-dihydronaphthalen-2-yl)methyl)azetidine-3-carboxamide], “B (ke is less than 1.0 and more than 0)”. For `CNC(=O)C1CN(CC2=Cc3ccc(OCCCC(F)(F)F)cc3C[C@@H]2C)C1` [Compound 12, (S)—N-methyl-1-((3-methyl-6-(4,4,4-trifluorobutoxy)-3,4-dihydronaphthalen-2-yl)methyl)azetidine-3-carboxamide] the value was “B (ke is less than 1.0 and more than 0)”. Consider `C[C@H]1Cc2cc(OCCCC(F)(F)F)ccc2C=C1CN1CC(C(=O)Nc2cccnc2)C1` [Compound 13, (S)-1-((3-methyl-6-(4,4,4-trifluorobutoxy)-3,4-dihydronaphthalen-2-yl)methyl)-N-(pyridin-3-yl)azetidine-3-carboxamide], for which the “ke” value was “A (ke is more than or equal to 1.0)”. For `C[C@H](CO)NC(=O)C1CN(CC2=Cc3ccc(OCCCC(F)(F)F)cc3C[C@@H]2C)C1` [Compound 14, N—((R)-1-hydroxypropan-2-yl)-1-(((S)-3-methyl-6-(4,4,4-trifluorobutoxy)-3,4-dihydronaphthalen-2-yl)methyl)azetidine-3-carboxamide] the value was “B (ke is less than 1.0 and more than 0)”; for `C[C@H](O)CNC(=O)C1CN(CC2=Cc3ccc(OCCCC(F)(F)F)cc3C[C@@H]2C)C1` [Compound 15, N—((S)-2-hydroxypropyl)-1-(((S)-3-methyl-6-(4,4,4-trifluorobutoxy)-3,4-dihydronaphthalen-2-yl)methyl)azetidine-3-carboxamide], “B (ke is less than 1.0 and more than 0)”. Regarding `CCCN(C)C(=O)C1CN(CC2=Cc3ccc(OCCCC(F)(F)F)cc3C[C@@H]2C)C1` [Compound 16, (S)—N-methyl-1-((3-methyl-6-(4,4,4-trifluorobutoxy)-3,4-dihydronaphthalen-2-yl)methyl)-N-propylazetidine-3-carboxamide], the “ke” value was “C (ke is 0)”. For `CC[C@H](C)NC(=O)C1CN(CC2=Cc3ccc(OCCCC(F)(F)F)cc3C[C@@H]2C)C1` [Compound 17, N—((S)-sec-butyl)-1-(((S)-3-methyl-6-(4,4,4-trifluorobutoxy)-3,4-dihydronaphthalen-2-yl)methyl)azetidine-3-carboxamide] the value was “B (ke is less than 1.0 and more than 0)”. The entry for `COC[C@H](C)NC(=O)C1CN(CC2=Cc3ccc(OCCCC(F)(F)F)cc3C[C@@H]2C)C1` [Compound 18, N—((S)-1-methoxypropan-2-yl)-1-(((S)-3-methyl-6-(4,4,4-trifluorobutoxy)-3,4-dihydronaphthalen-2-yl)methyl)azetidine-3-carboxamide] is “B (ke is less than 1.0 and more than 0)”; for `C[C@H]1Cc2cc(OCCCC(F)(F)F)ccc2C=C1CN1CC(C(=O)NCC2CC2)C1` [Compound 19, (S)—N-(cyclopropylmethyl)-1-((3-methyl-6-(4,4,4-trifluorobutoxy)-3,4-dihydronaphthalen-2-yl)methyl)azetidine-3-carboxamide] it is “A (ke is more than or equal to 1.0)”; for `C[C@H]1Cc2cc(OCCCC(F)(F)F)ccc2C=C1CN1CC(C(=O)NC2CC2)C1` [Compound 20, (S)—N-cyclopropyl-1-((3-methyl-6-(4,4,4-trifluorobutoxy)-3,4-dihydronaphthalen-2-yl)methyl)azetidine-3-carboxamide] it is “A (ke is more than or equal to 1.0)”.
